The values that follow come from PubChem BioAssay (NCI).

“And” between values parts separate entries of the source, which are not always exact repeats. Identical values can stand only once.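 96-well plates; 48 h exposure; 5 concentrations. Endpoints by linear interpolation between flanking doses. Not reached: highest tested concentration assigned. The concentration for 50% growth inhibition is given as GI50. TGI: total growth inhibition.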

Holding throughout (experiment): NCI-60 cell line screen, 48 h
Assay [1] has as its system BT-549 breast.
The test system of assay [2] is COLO 205 colon.
Assay [3] has as its system HCT-116 colon.
Assay [4] deals with HOP-92 NSCLC.
Assay [5] deals with NCI-H522 lung.
Assay [6] has as its system OVCAR-8 ovarian.
In assay [7] the test system is PC-3 prostate.
The test system of assay [8] is SR leukemia.

Regarding `CC(=O)OC1CC2C(C)(C)CCC[C@]2(C)C2=C1C(O)=C(C(C)C)C(=O)C2=O` (stereo partly drawn), the GI50 was 1.16 µM in assay [1]; 1.47 µM in assay [2]; 0.499 µM in assay [3]; 0.123 µM in assay [4]; 1.65 µM in assay [5]; 2.14 µM in assay [6]. For the same molecule, the GI50 in assay [7] is 0.731 µM; in assay [8], 0.39 µM. Also, the TGI came out at 3.34 µM in assay [1]; 3.33 µM in assay [2]; 1.99 µM in assay [3]; 0.547 µM in assay [4]; 3.42 µM in assay [5]; 14.5 µM in assay [6]. For the same molecule, the TGI in assay [7] stood at 5.12 µM; in assay [8], 2.11 µM.
Regarding `COc1ccc(C2=NN(C=O)C(c3ccc(OS(=O)(=O)c4ccc(C)cc4)c(OC)c3)C2)cc1` (stereo not drawn), the GI50 in assay [1] was 3.35 µM; in assay [2], 8.44 µM; in assay [3], 4.56 µM; in assay [4] it was 1.88 µM; in assay [5], 4.22 µM; in assay [6] it was 10.2 µM. Moreover, the GI50 was 3.34 µM in assay [7] and 3.02 µM in assay [8]. Besides, the TGI was 58.1 µM in assay [1]; > 100 µM in assay [2]; > 100 µM in assay [3]; 31.1 µM in assay [4]; 90.4 µM in assay [5]; > 100 µM in assay [6]. Also, the TGI in assay [7] and in assay [8] was > 100 µM throughout.
`COc1ccc(C2CC(c3ccccc3)=NN2C(=O)c2cc(OC)c(OC)c(OC)c2)cc1O` (stereo not drawn): the GI50 was 2 µM in assay [1]; 2.96 µM in assay [2]; 0.313 µM in assay [3]; 1.72 µM in assay [4]; 0.335 µM in assay [5]; 0.659 µM in assay [6]. Also, the GI50 in assay [7] was 0.369 µM; in assay [8], 0.302 µM. Besides, the TGI is 21.4 µM in assay [1]; 10.4 µM in assay [2]; 3.05 µM in assay [3]; 33.2 µM in assay [4]; 7.03 µM in assay [5]; > 76.5 µM in assay [6]. Moreover, the TGI in assay [7] is > 52.8 µM; in assay [8] it was 5.85 µM.
As to `O=C1Nc2ccc(O)cc2/C1=C\c1ccncc1`, the GI50 in assay [1] is 15.2 µM; in assay [2], 26.3 µM; in assay [3], 14.7 µM; in assay [4], 31.2 µM; in assay [5], 11.5 µM; in assay [6] it was 25.4 µM. The values for the GI50 in assay [7] and in assay [8] were 26.9 µM and 3.75 µM, respectively. For the same molecule, the TGI in assay [1] was 43.6 µM; in assay [2], 64.8 µM; in assay [3] it was 39.9 µM; in assay [4] it was > 100 µM; in assay [5], 38.2 µM; in assay [6], > 100 µM. Moreover, the TGI in assay [7] is 77.8 µM; in assay [8] it was 17.8 µM.
Consider `CC(C)(C)[Si](C)(C)OC1[C@@H](O[Si](C)(C)C(C)(C)C)[C@@H](CNC(=O)NC(=O)NC(=O)CCl)O[C@H]1n1cnc2c(NC(=O)Nc3ccccc3)ncnc21` (stereo partly drawn), for which the GI50 in assay [1] is 6.57 µM; in assay [2], 6.3 µM; in assay [3] it was 1.85 µM; in assay [4] it was 0.842 µM; in assay [5], 0.282 µM; in assay [6], 0.955 µM. For the same molecule, the GI50 in assay [7] was 1.1 µM; in assay [8], 0.226 µM. Further, the TGI in assay [1] was 13.1 µM; in assay [2], 13 µM; in assay [3], 7.41 µM; in assay [4], 1.98 µM; in assay [5] it was 0.572 µM; in assay [6] it was 3.77 µM. The TGI in assay [7] stood at 3.93 µM; in assay [8] it was 0.81 µM.
On to `O=C(NCCCl)NCCN1c2nc3ccccc3cc2Sc2cc3ccccc3nc21`, for which the GI50 was 7.01 µM in assay [1]; 1.32 µM in assay [2]; 0.8 µM in assay [3]; 0.722 µM in assay [4]; 4.23 µM in assay [5]; 3.03 µM in assay [6]. Moreover, the GI50 in assay [7] was 0.719 µM. The TGI in assay [1] is > 48.6 µM; in assay [2], 2.66 µM; in assay [3], 3.43 µM; in assay [4], 7.47 µM; in assay [5] it was > 53.3 µM; in assay [6], 20.8 µM. Besides, the TGI is 20.1 µM in assay [7] and > 23.3 µM in assay [8].
For the molecule `O=C(CN1CCN(CCN2C(=O)c3cccc4cccc(c34)C2=O)CC1)Nc1ccc2ncsc2c1`, the GI50 in assay [1] was 11.9 µM; in assay [2], 5.44 µM; in assay [3], 3.57 µM; in assay [4], 5.24 µM; in assay [5], 3.96 µM; in assay [6], 3.8 µM. In addition, the GI50 in assay [7] was 6.31 µM; in assay [8] it was 1.38 µM. Further, the TGI in assay [1] is 30.1 µM; in assay [2], 54.6 µM; in assay [3], 16.4 µM; in assay [4], > 100 µM; in assay [5] it was 18 µM; in assay [6], 22.9 µM. Moreover, the TGI in assay [7] stood at 34.6 µM; in assay [8], 41.2 µM.
Turning to `COc1ccc(N=N/C(=N\NC(=O)c2cc(Br)ccc2O)c2ccc(N(CCC#N)CCC#N)cc2OC)cc1`, the GI50 in assay [1] was > 150 mg/L; in assay [2] it was 50.6 mg/L; in assay [3], 60.6 mg/L; in assay [4], 81.9 mg/L; in assay [5], 40.1 mg/L; in assay [6], 47.5 mg/L. Moreover, the GI50 is 57.6 mg/L in assay [7] and 62.8 mg/L in assay [8]. Also, the TGI was > 150 mg/L in assay [1]; > 150 mg/L in assay [2]; > 150 mg/L in assay [3]; > 150 mg/L in assay [4]; 141 mg/L in assay [5]; > 150 mg/L in assay [6]. Besides, the TGI in assay [7] and in assay [8] was > 150 mg/L each time.
As for `CC(C)n1nc(C#Cc2cccc(O)c2)c2c(N)ncnc21`, the GI50 in assay [1] is 1.33 µM and 1.34 µM; in assay [2] it was 1.53 µM and 1.89 µM; in assay [3] it was 1.17 µM and 0.586 µM; in assay [4], 0.489 µM and 0.187 µM; in assay [5] it was 0.627 µM; in assay [6] it was 1.99 µM and 2.41 µM. The GI50 in assay [7] is 1.37 µM and 1.18 µM; in assay [8] it was 1.17 µM and 0.573 µM. Besides, the TGI in assay [1] is 4.56 µM and 6.18 µM; in assay [2] it was 12.7 µM and 13.2 µM; in assay [3], 7.78 µM and 10.8 µM; in assay [4], 2.35 µM and 0.774 µM; in assay [5], 5.33 µM and 4.55 µM; in assay [6], 30.1 µM and 16.1 µM. Moreover, the TGI in assay [7] was 12.3 µM and 13.9 µM; in assay [8], 23.4 µM and 11.4 µM.
